In paper PMC4350406, “Mechanism of Action of 2-Aminobenzamide HDAC Inhibitors in Reversing Gene Silencing in Friedreich’s Ataxia” (Frontiers in Neurology, 2015):
Entries after “also recorded” stand apart in the source; their conditions may differ. Where two headings read alike, the source gives them in different places.

Key:
FXN mRNA [1] = tested on: FXN mRNA; set-up: method as in PMID 16921367; settings: FRDA primary lymphocytes; cited from earlier work
FXN mRNA [2] = settings: cited from earlier work; for effect on FXN gene expression: lymphoid cells
[3] = set-up: method as in PMID 27721337, PMID 22973455; settings: in vivo, cited from earlier work
FXN mRNA [4] = assay: qRT-PCR of FXN mRNA in FRDA iPSC-derived neurons treated with HDAC inhibitors; type: cell-based, human; settings: for effect on FXN mRNA levels: 16-day-old FRDA neurons, 24 h, varying concentrations (Figure 2); for up-regulation of FXN mRNA: 10 μM for 24 h, data not shown
Experimental: (§1) All methods for iPSC derivation ([32]) and neuronal differentiation ([28], [33]) have been presented. […] Quantitative RT-PCR was performed as described ([28]), with the following primer pairs: • FXN: 5′-[…]-3′ and 5′-[…]-3′ • HDAC1: 5′-[…]-3′ and 5′-[…]-3′ • HDAC2: 5′-[…]-3′ and 5′-[…]-3′ • HDAC3: 5′-[…]-3′ and 5′-[…]-3′ • PCGF2: 5′-[…]-3′ and 5′-[…]-3′ • H2AFY2: 5′-[…]-3′ and 5′-[…]-3′
(§2) Data were normalized to RNA concentration and p values calculated using the t-test. Western blotting was performed as described ([28]), with antibodies to HDACs 1, 2, and 3 from Abcam (ab7028, ab7029, ab7030, respectively), used at a dilution of 1:5000. […] Protein concentrations were determined with the BCA assay (Thermo Scientific).

[5] = cited from earlier work
PCGF2 mRNA = assay: qRT-PCR of PCGF2 mRNA in FRDA neuronal cells; type: cell-based, human; settings: 24 h
Experimental: as §1, §2

H2AFY2 mRNA = assay: qRT-PCR of H2AFY2 mRNA in FRDA neuronal cells; type: cell-based, human; settings: 24 h
Experimental: as §1, §2

[6] = molecular target: T1, Recombinant human HDAC3/NCoR2 (Homo sapiens, UniProt O15379); settings: cited from earlier work
[7] = molecular target: T1, Recombinant human HDAC3/NCoR2; assay: HDAC3/NCoR2 deacetylase activity assay (acetyl-Lys(Ac)-AMC / Lys-C peptidase, progression curves)
Recombinant human HDAC1 [8] = molecular target: T2, Recombinant human HDAC1 (Homo sapiens, UniProt Q13547); settings: cited from earlier work
Recombinant human HDAC1 [9] = molecular target: T2, Recombinant human HDAC1; assay: HDAC1 deacetylase activity assay (acetyl-Lys(Ac)-AMC / Lys-C peptidase, progression curves)
FXN mRNA [10] = tested on: FXN mRNA; set-up: method as in PMID 25159818; settings: cited from earlier work
HDAC = tested on: HDAC; set-up: method as in PMID 16921367, PMID 18953021; settings: cited from earlier work
[11] = set-up: method as in PMID 25159818; settings: preclinical studies; cited from earlier work
FXN mRNA [12] = tested on: FXN mRNA; set-up: method as in PMID 12516053; settings: cited from earlier work
[13] = fit of kobs versus inhibitor concentration
[14] = progression curves, mechanism 1
[15] = progression curves, mechanism 2

T2 sequence (Q13547 whole entry): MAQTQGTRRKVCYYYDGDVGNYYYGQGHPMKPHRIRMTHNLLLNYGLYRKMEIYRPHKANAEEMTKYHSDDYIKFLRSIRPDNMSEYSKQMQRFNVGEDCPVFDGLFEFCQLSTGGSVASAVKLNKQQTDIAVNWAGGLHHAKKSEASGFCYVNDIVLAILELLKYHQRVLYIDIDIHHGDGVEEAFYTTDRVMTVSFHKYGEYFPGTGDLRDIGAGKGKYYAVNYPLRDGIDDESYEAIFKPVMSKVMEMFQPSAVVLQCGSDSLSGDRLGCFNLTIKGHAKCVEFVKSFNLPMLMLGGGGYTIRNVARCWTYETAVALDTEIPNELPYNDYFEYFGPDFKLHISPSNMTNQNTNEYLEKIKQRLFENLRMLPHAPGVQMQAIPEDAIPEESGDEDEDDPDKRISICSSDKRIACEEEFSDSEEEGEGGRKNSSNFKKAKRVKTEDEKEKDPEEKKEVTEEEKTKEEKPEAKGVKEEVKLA
T1 sequence (O15379 whole entry): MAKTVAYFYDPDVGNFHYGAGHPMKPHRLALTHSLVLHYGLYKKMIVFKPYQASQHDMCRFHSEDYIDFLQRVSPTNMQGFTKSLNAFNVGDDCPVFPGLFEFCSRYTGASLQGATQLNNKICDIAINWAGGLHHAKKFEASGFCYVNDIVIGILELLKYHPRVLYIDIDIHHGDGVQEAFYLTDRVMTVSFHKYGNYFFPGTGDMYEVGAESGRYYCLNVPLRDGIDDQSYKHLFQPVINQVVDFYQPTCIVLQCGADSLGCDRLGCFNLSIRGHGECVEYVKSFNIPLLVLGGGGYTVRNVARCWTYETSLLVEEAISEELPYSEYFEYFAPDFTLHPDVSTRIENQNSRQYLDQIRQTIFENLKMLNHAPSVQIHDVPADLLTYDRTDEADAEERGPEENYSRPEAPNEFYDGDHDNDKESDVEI
T1 sequence (Q9Y618 395-489 partner limits assumed): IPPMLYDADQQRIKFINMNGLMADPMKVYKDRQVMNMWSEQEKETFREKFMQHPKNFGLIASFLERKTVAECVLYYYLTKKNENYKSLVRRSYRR

Nc1ccccc1NC(=O)CCCCCC(=O)Nc1ccccc1 [4b, N^1-(2-aminophenyl)-N^7-phenylheptanediamide]
FXN mRNA levels (FXN mRNA [1]): significantly increase FXN mRNA levels

Nc1ccccc1NC(=O)CCCCCCC(=O)Nc1ccccc1 [BML-210, N^1-(2-aminophenyl)-N^8-phenyloctanediamide]
FXN mRNA expression (FXN mRNA [2]; FRDA lymphoblasts): significant increase

Nc1ccccc1NC(=O)/C=C/c1cn(C/C=C/c2ccccc2)nn1 [Click-1]
metabolic conversion / benzimidazole formation [3]: stability to benzimidazole formation | FXN mRNA increase compared with HDACi 109 (FXN mRNA [4]; FRDA neuronal cells, varying concentrations (Figure 6B)): equivalent activities; also recorded: no loss of activity | brain/plasma ratio [5]: > 0.7 | PCGF2 mRNA level (PCGF2 mRNA; 5 μM (lower concentrations)): significantly down-regulate | H2AFY2 mRNA level (H2AFY2 mRNA; 5 μM (lower concentrations)): significantly down-regulate

Nc1ccc(-c2ccccc2)cc1NC(=O)CCCCCC(=O)Nc1ccccc1 [HDACi 3, N^1-(4-aminobiphenyl-3-yl)-N^7-phenylheptanediamide]
IC50 [6]: 9.6 µM | inhibition mechanism HDAC3 [7, 13]: mechanism 1 | k1 HDAC3 [7, 14]: k1 = 600 min^-1 M^−1 | k−1 HDAC3 [7, 14]: k−1 = 0.0015 min^−1 | Selectivity HDAC3 (from IC50) ([7]; ratio of IC50 HDAC1 to IC50 HDAC3, from data of refs 25, 26): 0.013 | effect on FXN mRNA levels (FXN mRNA [4]): no effect; also recorded: weakly active | IC50 (Recombinant human HDAC1 [8]): 0.127 µM | inhibition mechanism HDAC1 (Recombinant human HDAC1 [9]; [13]): slow-on/slow-off inhibition mechanism 2 | preference for HDAC1 over HDAC3 comparing IC50 values (Recombinant human HDAC1 [9]; from Table 1 values): ~ 75 fold | preference for HDAC1 over HDAC3 from Ki measurements (Recombinant human HDAC1 [9]; from Table 1 values): ~ 350 fold | k2 HDAC1 (Recombinant human HDAC1 [9]; [15]): k2 = 0.1675 min^−1 | k−2 HDAC1 (Recombinant human HDAC1 [9]; [15]): k−2 = 0.0017 min^−1

Cc1ccc(NC(=O)CCCCCC(=O)Nc2ccccc2N)cc1 [HDACi 106]
metabolic conversion / benzimidazole formation [3]: conversion of the active molecule into an inactive metabolic product | inhibition mechanism HDAC1 (Recombinant human HDAC1 [8]): slow-on/slow-off inhibitor

Cc1ccc(C(=O)NCCCCCC(=O)Nc2ccccc2N)cc1 [HDACi 109, N-(6-(2-aminophenylamino)-6-oxohexyl)-4-methylbenzamide]
metabolic conversion / benzimidazole formation [3]: conversion of the active molecule into an inactive metabolic product | metabolic conversion / benzimidazole formation ([3]; listed as 109/RG2833): conversion of the active molecule into inactive, potentially toxic metabolic products

Cc1ccc(C(=O)NCCCCCC(=O)Nc2ccc(F)cc2N)cc1 [HDACi 136, N-(6-(2-amino-4-fluorophenylamino)-6-oxohexyl)-4-methylbenzamide]
effect on FXN mRNA levels (FXN mRNA [4]): only a modest effect; also recorded: inactive | PCGF2 mRNA level (PCGF2 mRNA; 5 μM (lower concentrations)): inactive at lower concentrations | PCGF2 mRNA level (PCGF2 mRNA; 10 μM): moderately active | H2AFY2 mRNA level (H2AFY2 mRNA; 5 μM (lower concentrations)): inactive at lower concentrations | H2AFY2 mRNA level (H2AFY2 mRNA; 10 μM): moderately active

Nc1ccc(-c2cccs2)cc1NC(=O)CCCCCCNC(=O)c1cccnc1 [HDACi 233, N-(2-amino-5-(2-thienyl)phenyl)-7-nicotinoylamino-heptanamide]
induction of FXN gene expression in FRDA neuronal cells (FXN mRNA [10]): weakly active | up-regulation of FXN mRNA (FXN mRNA [4]; FRDA neuronal cells): did not | selectivity for HDAC1 over HDAC3 (Recombinant human HDAC1 [8]): > 200 fold

Nc1cc(F)ccc1NC(=O)/C=C/c1cnn(CC=Cc2ccccc2)c1 [HDACi 966, (E)-N-(2-amino-4-fluorophenyl)-3-(1-cinnamyl-1H-pyrazol-4-yl)acrylamide]
induction of FXN gene expression in FRDA neuronal cells (FXN mRNA [10]): inactive | selectivity for HDAC3 over HDAC1/2 [6]: ~ 30 fold | up-regulation of FXN mRNA (FXN mRNA [4]; FRDA neuronal cells): did not

O=C(CCCCCCC(=O)Nc1ccccc1)NO [SAHA]
effect on FXN gene expression (FXN mRNA [2]): without effect on FXN gene expression

CC(/C=C/C(=O)NO)=C\[C@@H](C)C(=O)c1ccc(N(C)C)cc1 [TSA]
inhibition mechanism (HDAC): rapid-on/rapid-off inhibitors | effect on FXN gene expression (FXN mRNA [2]): without effect on FXN gene expression

c1ccc2[nH]cnc2c1 [benzimidazole]
risk category for inducing QTc prolongation [11]: high-risk category

NC(=O)c1cccnc1 [nicotinamide]
FXN mRNA levels (FXN mRNA [2]; FRDA lymphoblasts): increases FXN mRNA levels

CCCC(=O)[O-].[Na+] [sodium butyrate]
ability to increase FXN mRNA expression (FXN mRNA [12]): only a modest effect
